Measurements from US20240327412A1, “FACTOR XIIA INHIBITORS” (KALVISTA PHARMACEUTICALS LIMITED, priority 2021, published 2024).
pIC50: −log10 of the molar value.

What was measured:
Human Factor XIIa = molecular target: T1, Human Factor XIIa (Homo sapiens, UniProt P00748); experiment: Determination of FXIIa inhibition (fluorogenic substrate H-DPro-Phe-Arg-AFC, IC50 assay); type: biochemical; details: substrate at Km concentration, 25° C.; category scale; read-out: Human FXII IC50 (nm)
T1 construct: Proteolytic cleavage of FXII to heavy and light chains of FXIIa dramatically increases catalytic activity; purchased Enzyme Research Laboratories
T1 sequence (P00748 373-615 limits assumed): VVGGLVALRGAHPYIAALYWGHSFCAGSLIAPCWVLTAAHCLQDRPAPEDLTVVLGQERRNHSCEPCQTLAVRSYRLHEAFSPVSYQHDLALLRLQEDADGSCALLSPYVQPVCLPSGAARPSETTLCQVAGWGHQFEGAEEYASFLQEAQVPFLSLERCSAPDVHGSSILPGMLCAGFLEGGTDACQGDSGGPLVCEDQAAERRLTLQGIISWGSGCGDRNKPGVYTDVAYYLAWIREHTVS
T1 sequence (P00748 20-372 partner limits assumed): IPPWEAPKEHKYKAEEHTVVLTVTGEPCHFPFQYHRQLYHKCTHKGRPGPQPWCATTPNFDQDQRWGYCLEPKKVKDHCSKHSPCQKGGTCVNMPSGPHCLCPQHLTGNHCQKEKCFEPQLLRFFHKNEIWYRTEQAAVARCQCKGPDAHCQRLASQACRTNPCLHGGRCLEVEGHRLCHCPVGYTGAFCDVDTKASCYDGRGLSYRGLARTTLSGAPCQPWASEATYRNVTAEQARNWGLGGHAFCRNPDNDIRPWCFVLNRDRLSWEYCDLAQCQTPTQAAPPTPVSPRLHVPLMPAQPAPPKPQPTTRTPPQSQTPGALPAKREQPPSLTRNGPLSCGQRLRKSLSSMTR
In short: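 Human FXIIa incubated at 25° C. with fluorogenic H-DPro-Phe-Arg-AFC at its Km concentration plus varying compound levels. Linear fluorescence increase over 5 min taken as % activity; IC50 is concentration halving uninhibited activity.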

Plasma Kallikrein = molecular target: T2, Plasma Kallikrein (Homo sapiens, UniProt P03952); experiment: Related protease inhibition: Plasma Kallikrein (fluorogenic substrate at Km); type: biochemical; details: class symbols per Table 18, read-out: IC50 (human PKal)
T2 construct: FXIIa converts plasma prekallikrein (PK) to plasma kallikrein (PKa)
T2 sequence (P03952 391-638 limits assumed): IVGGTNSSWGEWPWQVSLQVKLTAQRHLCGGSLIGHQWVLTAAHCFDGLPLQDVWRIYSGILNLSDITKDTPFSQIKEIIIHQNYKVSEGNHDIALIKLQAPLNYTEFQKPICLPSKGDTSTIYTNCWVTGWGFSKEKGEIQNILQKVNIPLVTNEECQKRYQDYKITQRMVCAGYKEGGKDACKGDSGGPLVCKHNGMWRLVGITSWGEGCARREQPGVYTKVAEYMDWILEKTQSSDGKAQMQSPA
T2 sequence (P03952 20-390 partner limits assumed): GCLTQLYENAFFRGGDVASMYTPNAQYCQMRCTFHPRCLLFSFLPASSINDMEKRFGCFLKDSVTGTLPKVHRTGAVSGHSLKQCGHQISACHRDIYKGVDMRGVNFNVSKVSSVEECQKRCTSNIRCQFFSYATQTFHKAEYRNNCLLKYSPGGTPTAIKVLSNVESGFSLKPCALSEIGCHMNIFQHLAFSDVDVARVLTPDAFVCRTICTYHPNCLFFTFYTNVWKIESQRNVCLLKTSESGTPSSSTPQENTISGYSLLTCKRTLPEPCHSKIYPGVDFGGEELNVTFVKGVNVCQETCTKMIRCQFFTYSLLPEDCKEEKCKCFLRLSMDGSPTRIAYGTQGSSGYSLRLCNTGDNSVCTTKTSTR
In short: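 Read-out is the linear per-minute rise in fluorescence liberated from substrate, monitored for 5 min at 25° C and expressed as % activity. Substrate sat at Km, except for FXIa, which used 100 μM. IC50 values come from the concentration producing half-maximal inhibition.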

KLK1 = KLK1 (Homo sapiens, UniProt P06870); experiment: Related protease inhibition: KLK1 (fluorogenic substrate at Km); type: biochemical; details: class symbols per Table 18
KLK1, sequence (P06870 25-262): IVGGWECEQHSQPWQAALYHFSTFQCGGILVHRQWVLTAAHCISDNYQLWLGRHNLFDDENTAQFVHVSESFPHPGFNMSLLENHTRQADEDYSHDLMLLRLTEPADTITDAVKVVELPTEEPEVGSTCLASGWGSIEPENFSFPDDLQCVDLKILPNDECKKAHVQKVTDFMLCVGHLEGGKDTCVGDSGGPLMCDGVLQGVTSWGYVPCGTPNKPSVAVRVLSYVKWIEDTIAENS
In short: (§1)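 Enzymatic activity was followed as release of fluorescence from a fluorogenic substrate over 5 min at 25° C, with test compound at various concentrations. The linear rate per minute was converted to % activity, and IC50 was taken as the concentration giving 50% inhibition of uninhibited enzyme activity.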

FXa = FXa (Homo sapiens, UniProt P00742); experiment: Related protease inhibition: FXa (fluorogenic substrate at Km); type: biochemical; details: class symbols per Table 18
FXa, sequence (P00742 235-488 limits assumed): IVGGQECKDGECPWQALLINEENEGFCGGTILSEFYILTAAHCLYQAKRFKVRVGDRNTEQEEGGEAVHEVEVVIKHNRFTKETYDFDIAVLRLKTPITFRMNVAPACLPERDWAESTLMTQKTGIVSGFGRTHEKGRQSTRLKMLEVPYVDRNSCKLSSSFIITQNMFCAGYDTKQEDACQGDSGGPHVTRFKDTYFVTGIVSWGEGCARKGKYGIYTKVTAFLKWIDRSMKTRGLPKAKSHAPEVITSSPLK
FXa, sequence (P00742 41-179 partner limits assumed): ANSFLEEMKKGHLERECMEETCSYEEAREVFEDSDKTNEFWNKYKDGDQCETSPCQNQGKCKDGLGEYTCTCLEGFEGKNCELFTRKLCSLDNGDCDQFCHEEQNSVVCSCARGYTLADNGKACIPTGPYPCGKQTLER
In short: as §1

Plasmin = Plasmin (Homo sapiens, UniProt P00747); experiment: Related protease inhibition: Plasmin (fluorogenic substrate at Km); type: biochemical; details: class symbols per Table 18
Plasmin, sequence (P00747 581-810 limits assumed): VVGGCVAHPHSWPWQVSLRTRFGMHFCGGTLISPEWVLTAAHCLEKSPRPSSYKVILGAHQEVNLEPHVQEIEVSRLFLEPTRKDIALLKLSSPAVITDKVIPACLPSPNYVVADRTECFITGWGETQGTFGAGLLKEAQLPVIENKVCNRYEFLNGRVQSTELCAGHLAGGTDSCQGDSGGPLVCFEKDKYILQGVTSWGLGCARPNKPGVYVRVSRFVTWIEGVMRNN
Plasmin, sequence (P00747 97-580 partner limits assumed): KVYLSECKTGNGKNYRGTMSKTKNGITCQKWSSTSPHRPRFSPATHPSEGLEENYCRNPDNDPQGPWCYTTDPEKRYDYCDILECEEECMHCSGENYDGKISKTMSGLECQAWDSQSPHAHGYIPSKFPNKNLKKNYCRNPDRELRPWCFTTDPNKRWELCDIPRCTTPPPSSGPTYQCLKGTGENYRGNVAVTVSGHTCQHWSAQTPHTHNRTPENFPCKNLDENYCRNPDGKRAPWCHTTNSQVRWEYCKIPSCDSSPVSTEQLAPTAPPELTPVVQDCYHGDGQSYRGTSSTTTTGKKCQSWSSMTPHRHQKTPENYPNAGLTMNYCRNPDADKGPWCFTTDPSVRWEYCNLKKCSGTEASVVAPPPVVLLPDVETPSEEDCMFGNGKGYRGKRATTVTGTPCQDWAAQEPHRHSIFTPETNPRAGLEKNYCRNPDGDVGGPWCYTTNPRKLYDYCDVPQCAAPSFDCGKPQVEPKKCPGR
Description: (§2) In vitro inhibition of related proteases was determined using an IC50 assay based on standard literature methods (see e.g. Shori et al., Biochem. Pharmacol., 1992, 43, 1209; Bouckaert et al., European Journal of Medicinal Chemistry 110 (2016) 181). Human serine protease enzyme Plasma Kallikrein, KLK1, FXa, Plasmin, Thrombin and Trypsin were assayed for enzymatic activity using an appropriate fluorogenic substrate at Km concentration, FXIa at fixed substrate concentration of 100 μM and various concentrations of the test compound. Protease activity was measured by monitoring the accumulation of liberated fluorescence from the substrate over 5 min at 25° C. The linear rate of fluorescence increase per minute was expressed as percentage (%) activity. IC50 values were calculated as the concentration of inhibitor giving 50% inhibition of the uninhibited enzyme activity (100%).

Thrombin = Thrombin (Homo sapiens, UniProt P00734); experiment: Related protease inhibition: Thrombin (fluorogenic substrate at Km); type: biochemical; details: class symbols per Table 18
Description: as §2

Trypsin = Trypsin (Homo sapiens, UniProt P07477); experiment: Related protease inhibition: Trypsin (fluorogenic substrate at Km); type: biochemical; details: class symbols per Table 18
Description: as §2

FXIa = FXIa (Homo sapiens, UniProt P03951); experiment: Related protease inhibition: FXIa (fixed substrate concentration of 100 μM); type: biochemical; details: class symbols per Table 18
FXIa, sequence (P03951 388-625 limits assumed): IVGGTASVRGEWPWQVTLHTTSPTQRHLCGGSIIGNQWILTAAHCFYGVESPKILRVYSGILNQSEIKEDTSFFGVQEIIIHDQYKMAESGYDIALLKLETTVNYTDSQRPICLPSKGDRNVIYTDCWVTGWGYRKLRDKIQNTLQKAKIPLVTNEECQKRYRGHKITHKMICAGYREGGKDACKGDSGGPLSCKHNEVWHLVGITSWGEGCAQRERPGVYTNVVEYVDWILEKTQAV
FXIa, sequence (P03951 19-387 partner limits assumed): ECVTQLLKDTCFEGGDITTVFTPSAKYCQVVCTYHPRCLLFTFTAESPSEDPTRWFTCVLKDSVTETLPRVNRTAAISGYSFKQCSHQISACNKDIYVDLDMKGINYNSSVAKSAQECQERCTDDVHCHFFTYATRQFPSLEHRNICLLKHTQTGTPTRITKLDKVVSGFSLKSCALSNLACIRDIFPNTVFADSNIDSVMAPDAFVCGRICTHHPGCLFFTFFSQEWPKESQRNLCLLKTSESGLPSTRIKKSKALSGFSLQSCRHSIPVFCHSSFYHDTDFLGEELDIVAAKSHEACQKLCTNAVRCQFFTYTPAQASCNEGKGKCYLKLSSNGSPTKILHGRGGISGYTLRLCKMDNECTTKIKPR
Description: as §2

[1] = Pharmacokinetics after single intravenous and single oral dose in rats; type: in vivo; details: rat, plasma, male Sprague-Dawley rats, single iv (nominal 1 mg/kg) and single po (nominal 5 mg/kg) dose; for half-life: Phoenix WinNonlin; for bioavailability: oral bioavailability, 10% DMSO/10% Cremophor EL/80% SWFI
Description: Pharmacokinetic studies of the compounds in Table 19 were performed to assess the pharmacokinetics following a single intravenous dose and a single oral dose in male Sprague-Dawley rats. Two rats were given a single intravenous dose of 1 mL/kg of a nominal 1 mg/ml (1 mg/kg) composition of test compound in 10% DMSO/10% Cremophor EL/80% SWFI vehicle. Two rats were given a single oral dose of 5 ml/kg of a nominal 1 mg/mL (5 mg/kg) composition of test compound in 10% DMSO/10% Cremophor EL/80% SWFI vehicle.
Following intravenous dosing, blood samples were collected over a period of 12 h. Sample times were 2, 5, 15 and 30 min then 1, 2, 4, 6, and 12 h. Following oral dosing, blood samples were collected over a period of 24 h. Sample times were 5, 15 and 30 min then 1, 2, 4, 6, 8, 12 and 24 h.
Following collection, blood samples were centrifuged and the plasma fraction analysed for concentration of test compound by LCMS. Oral bioavailability and half-life calculations from these studies were obtained using Phoenix WinNonlin (v8.0) and are shown below: […]

[2] = system: patients with type I/II hereditary angioedema (HAE); details: phase 2, monthly prophylactic subcutaneous treatment; cited from earlier work

pIC50 (Human Factor XIIa)	pIC50 (Plasma Kallikrein)	pIC50 (KLK1)	pIC50 (FXa)	pIC50 (Plasmin)	pIC50 (Thrombin)	pIC50 (Trypsin)	pIC50 (FXIa)	half-life [1]	bioavailability [1]	Compound	preventing attacks [2]	tolerability [2]
6.52 to 7.00	< 4.40	5.00 to 5.52	4.40 to 5.00	< 4.40	4.40 to 5.00	4.40 to 5.00	< 4.40			Nc1nccc2c(NCC34CC(COC5CCn6ccnc6C5)(C3)C4)cccc12 (racemic) [Example 1002, N5-((3-(((5,6,7,8-Tetrahydroimidazo[1,2-a]pyridin-7-yl)oxy)methyl)bicyclo[1.1.1]pentan-1-yl)methyl)isoquinoline-1,5-diamine]		
6.52 to 7.00	< 4.40	5.00 to 5.52	4.40 to 5.00		5.00 to 5.52			7.36 h	41%	Nc1nccc2c(NCC34CC(COC5CCn6ccnc6C5)(C3)C4)cccc12 (single isomer, unassigned) [Example 1002.1, (S*)-N5-((3-(((5,6,7,8-tetrahydroimidazo[1,2-a]pyridin-7-yl)oxy)methyl)bicyclo[1.1.1]pentan-1-yl)methyl)isoquinoline-1,5-diamine]		
6.52 to 7.00	< 4.40	5.00 to 5.52	4.40 to 5.00	< 4.40	4.40 to 5.00	< 4.40	< 4.40	7.83 h	30.4%	Nc1nccc2c(NCC34CC(COc5ccn6ccnc6c5)(C3)C4)cccc12 [Example 1001, N5-((3-((Imidazo[1,2-a]pyridin-7-yloxy)methyl)bicyclo[1.1.1]pentan-1-yl)methyl)isoquinoline-1,5-diamine]		
7.00 to 8.00	< 4.40	5.00 to 5.52	< 4.40		< 4.40			10.5 h	19.9%	Nc1nccc2c(NCC34COC(COc5ccn6ccnc6c5)(C3)C4)cccc12 [Example 2020, 5-N-[[1-(Imidazo[1,2-a]pyridin-7-yloxymethyl)-2-oxabicyclo[2.1.1]hexan-4-yl]methyl]isoquinoline-1,5-diamine]		
6.52 to 7.00	< 4.40	5.00 to 5.52	< 4.40		< 4.40			3.13 h	42.6%	Nc1nccc2c(NCC34COC(COc5ccc6nccn6c5)(C3)C4)cccc12 [Example 2022, 5-N-[[1-(Imidazo[1,2-a]pyridin-6-yloxymethyl)-2-oxabicyclo[2.1.1]hexan-4-yl]methyl]isoquinoline-1,5-diamine]		
7.00 to 8.00	< 4.40	5.00 to 5.52	4.40 to 5.00	< 4.40	4.40 to 5.00	< 4.40		5.7 h	33.5%	Nc1nccc2c(NCC34CC(COc5ccc6nccn6c5)(CO3)C4)cccc12 [Example 6602, 5-N-[[4-(Imidazo[1,2-a]pyridin-6-yloxymethyl)-2-oxabicyclo[2.1.1]hexan-1-yl]methyl]isoquinoline-1,5-diamine]		
7.00 to 8.00	4.40 to 5.00	5.52 to 6.00	5.52 to 6.00	< 4.40	< 4.40	4.40 to 5.00		6.64 h	14.8%	Cc1cnc2ccc(OCC34COC(CNc5cccc6c(N)nccc56)(C3)C4)cn12 [Example 6624, 5-N-[[4-[(3-Methylimidazo[1,2-a]pyridin-6-yl)oxymethyl]-2-oxabicyclo[2.1.1]hexan-1-yl]methyl]isoquinoline-1,5-diamine]		
7.00 to 8.00	< 4.40	5.00 to 5.52	4.40 to 5.00		4.40 to 5.00			11.9 h	9.3%	Nc1nccc2c(NCC34CC(COc5ccn6ccnc6c5)(CCO3)C4)cccc12 [Example 10901, N5-((5-((Imidazo[1,2-a]pyridin-7-yloxy)methyl)-2-oxabicyclo[3.1.1]heptan-1-yl)methyl)isoquinoline-1,5-diamine]		
6.52 to 7.00	< 4.40	4.40 to 5.00	< 4.40	< 4.40	< 4.40	4.40 to 5.00		2.55 h	40.5%	Cn1ccc(OCC23CCOC(CNc4cccc5c(N)nccc45)(C2)C3)cc1=O [Example 10906, 4-((1-(((1-aminoisoquinolin-5-yl)amino)methyl)-2-oxabicyclo[3.1.1]heptan-5-yl)methoxy)-1-methylpyridin-2(1H)-one]		
7.00 to 8.00	< 4.40	5.00 to 5.52	< 4.40		< 4.40			1.14 h	8.2%	Cn1ccc(OCC23CN(C(=O)OCc4ccccc4)C(CNc4cccc5c(N)nccc45)(C2)C3)cc1=O [Example 12001, benzyl 1-(((1-aminoisoquinolin-5-yl)amino)methyl)-4-(((1-methyl-2-oxo-1,2-dihydropyridin-4-yl)oxy)methyl)-2-azabicyclo[2.1.1]hexane-2-carboxylate]		
7.00 to 8.00								1.08 h	0.4%	Cn1ccc(OCC23CN(C(=O)CCc4ccccc4)C(CNc4cccc5c(N)nccc45)(C2)C3)cc1=O [Example 12016, 4-((1-(((1-aminoisoquinolin-5-yl)amino)methyl)-2-(3-phenylpropanoyl)-2-azabicyclo[2.1.1]hexan-4-yl)methoxy)-1-methylpyridin-2(1H)-one]		
8.00 to 9.00	5.00 to 5.52	5.00 to 5.52	5.52 to 6.00	4.40 to 5.00	< 4.40	4.40 to 5.00				Cc1cc(OCC23CN(C(=O)NCc4ccccc4)C(CNc4cccc5c(N)nccc45)(C2)C3)cc(=O)n1C [Example 12038, 1-(((1-aminoisoquinolin-5-yl)amino)methyl)-N-benzyl-4-(((1,6-dimethyl-2-oxo-1,2-dihydropyridin-4-yl)oxy)methyl)-2-azabicyclo[2.1.1]hexane-2-carboxamide]		
										Garadacimab: "a monoclonal antibody inhibitory against FXIIa"	effective in preventing attacks	well tolerated
